US6264916A, “N,N-dimethyldiatrizoic acid and its conjugates as hepatobiliary agents for x-ray CT imaging” (Bracco Research, USA, priority 2000, dated 2001)
Like-named read-outs stand apart in the source and are kept apart here.

Test: Biodistribution studies in mice (radioiodinated compounds, % ID/g-tissue)
Type: in vivo
Conditions: tracer level, but MDTA-Na 0.18M and MDTA-NMG 0.19M; for tissue uptake at 1 min / tissue uptake at 5 min / tissue uptake at 1 h: mouse, iv
Procedure: All of the new analogs were radiolabeled in order to determine their physical and biological properties. The iodinated compounds were exchange-labeled by heating with Na^125 I in the presence of CuSO4 and Na2 S2 O5 in glacial acetic acid at 135-150° C. for 1 h, followed by HPLC purification using a nucleosil C18 column and CH3 CN--H2 O containing 0.1% TFA as an eluent. In some cases (e.g. the compound of Example 12) the radioiodination was carried out by heating with Na*I in HOAc--NaOAc (pH 4.6) at 100° C. for 15 min. In all cases radiolabeled compounds of acceptable radiochemical purity and specific activity were obtained.
The compound of formula I, N,N-dimethyl-diatrizoic acid, was similarly radiolabeled for biological studies.
a) For intravenous administration the preferred vehicle for the compounds of formula I, II and III is bovine serum albumin, however, other physiologically acceptable vehicles may also be used.
Biodistribution studies were conducted in mice and the results are given in Table I. X-Ray CT images of MDTA in mice and rats indicate that these hydrophobic diatrizoate analogs may be of promise for liver imaging.

[1] = blood, blood, 1', read-out: Biodistribution, Blood 1'
[2] = blood, blood, 5', read-out: Biodistribution, Blood 5'
[3] = blood, blood, 60', read-out: Biodistribution, Blood 60'
[4] = kidney, kidney, 1', read-out: Biodistribution, Kidney 1'
[5] = kidney, kidney, 5', read-out: Biodistribution, Kidney 5'
[6] = kidney, kidney, 60', read-out: Biodistribution, Kidney 60'
[7] = liver, liver, 1', read-out: Biodistribution, Liver 1'
[8] = liver, liver, 5', read-out: Biodistribution, Liver 5'
[9] = liver, liver, 60', read-out: Biodistribution, Liver 60'
[10] = small/large intestine, small/large intestine, 1', read-out: Biodistribution, Sm/Lrg. Intestine 1'
[11] = small/large intestine, small/large intestine, 5', read-out: Biodistribution, Sm/Lrg. Intestine 5'
[12] = small/large intestine, small/large intestine, 60', read-out: Biodistribution, Sm/Lrg. Intestine 60'

Molecule	tissue uptake at 1 min [1]	tissue uptake at 5 min [2]	tissue uptake at 1 h [3]	tissue uptake at 1 min [4]	tissue uptake at 5 min [5]	tissue uptake at 1 h [6]	tissue uptake at 1 min [7]	tissue uptake at 5 min [8]	tissue uptake at 1 h [9]	tissue uptake at 1 min [10]	tissue uptake at 5 min [11]	tissue uptake at 1 h [12]	also measured
CC(=O)N(C)c1c(I)c(C(=O)NCCCCCCCCCCCC(=O)O)c(I)c(N(C)C(C)=O)c1I [Example F12-DP-MDTA]	2.38 %ID/g	0.39 %ID/g	0.04 %ID/g	9.89 %ID/g	5.72 %ID/g	0.07 %ID/g	28.9 %ID/g	16.6 %ID/g	2.17 %ID/g	2.28 %ID/g	11.6 %ID/g	28 %ID/g	–
CC(=O)N(C)c1c(I)c(C(=O)NCCCC(=O)O)c(I)c(N(C)C(C)=O)c1I [Example F4-DP-MDTA, 4-[[[3,5-Bis(acetylmethylamino)-2,4,6-triiodophenyl]carbonyl]amino]-butanoic acid]	4.91 %ID/g	0.82 %ID/g	0.12 %ID/g	17.9 %ID/g	7.89 %ID/g	0.05 %ID/g	16.1 %ID/g	11.9 %ID/g	0.33 %ID/g	1.73 %ID/g	11.3 %ID/g	21.2 %ID/g	–
CC(=O)N(C)c1c(I)c(C(=O)Nc2ccc(CCCCCCCCCCCCCCC(=O)O)cc2)c(I)c(N(C)C(C)=O)c1I [Example F15-P-MDTA, 4-[[[3,5-Bis(acetylmethylamino)-2,4,6-triiodophenyl]carbonyl]amino]benzenepentadecanoic acid]	24.6 %ID/g	4.28 %ID/g	0.12 %ID/g	8.28 %ID/g	5.1 %ID/g	0.34 %ID/g	46.4 %ID/g	76.3 %ID/g	6.18 %ID/g	2.13 %ID/g	4.85 %ID/g	43.7 %ID/g	–
CC(=O)N(C)c1c(I)c(C(=O)Nc2ccc(CCCC(=O)O)cc2)c(I)c(N(C)C(C)=O)c1I [Example F4-P-MDTA, 4-(((3,5-Bis(acetylmethylamino)-2,4,6-triiodophenyl)carbonyl)amino)benzenebutyric acid]	3.55 %ID/g	0.57 %ID/g	0.07 %ID/g	5.63 %ID/g	5.41 %ID/g	0.63 %ID/g	29.6 %ID/g	29.4 %ID/g	6.13 %ID/g	1.71 %ID/g	4.56 %ID/g	20.4 %ID/g	–
CC(=O)N(C)c1c(I)c(C(=O)Nc2ccc(CC(=O)O)cc2)c(I)c(N(C)C(C)=O)c1I [Example F2-P-MDTA, 4-(((3,5-Bis(Acetylmethylamino)-2,4,6-triiodophenyl)carbonyl)amino)-benzeneacetic acid]	4.83 %ID/g	0.96 %ID/g	0.04 %ID/g	11.5 %ID/g	5.83 %ID/g	0.33 %ID/g	17.9 %ID/g	12.9 %ID/g	2.25 %ID/g	2.47 %ID/g	9.54 %ID/g	25.4 %ID/g	–
9(10)-N-(4-(((3,5-Bis-(acetylmethylamino)-2,4,6-triiodophenyl)carbonyl)amino)benzoyl)amino-octadecanoic acid [9/10-F-18P-MDTA]	–	–	–	–	–	–	–	–	–	–	–	–	Biodistribution, Blood 1' (blood, 1', 1 min): 6.16 % ID/g-tissue; Biodistribution, Blood 5' (blood, 5', 5 min): 0.46 % ID/g-tissue; Biodistribution, Blood 60' (blood, 60', 60 min): 0.26 % ID/g-tissue; Biodistribution, Kidney 1' (kidney, 1', 1 min): 3.32 % ID/g-tissue; Biodistribution, Kidney 5' (kidney, 5', 5 min): 2.09 % ID/g-tissue; Biodistribution, Kidney 60' (kidney, 60', 60 min): 0.39 % ID/g-tissue; Biodistribution, Liver 1' (liver, 1', 1 min): 30.29 % ID/g-tissue; Biodistribution, Liver 5' (liver, 5', 5 min): 32.33 % ID/g-tissue; Biodistribution, Liver 60' (liver, 60', 60 min): 3.16 % ID/g-tissue; Biodistribution, Sm/Lrg. Intestine 1' (small/large intestine, 1', 1 min): 0.51 % ID/g-tissue; Biodistribution, Sm/Lrg. Intestine 5' (small/large intestine, 5', 5 min): 2.71 % ID/g-tissue; Biodistribution, Sm/Lrg. Intestine 60' (small/large intestine, 60', 60 min): 20.21 % ID/g-tissue
CC(=O)N(C)c1c(I)c(C(=O)Nc2ccc(CCCCCCC(=O)O)cc2)c(I)c(N(C)C(C)=O)c1I [Example F7-P-MDTA, 4-[[[3,5-Bis(acetylmethylamino)-2,4,6-triiodophenyl]carbonyl]amino]benzeneheptanoic acid]	2.38 %ID/g	0.57 %ID/g	0.15 %ID/g	4.28 %ID/g	2.94 %ID/g	0.3 %ID/g	39.5 %ID/g	37.2 %ID/g	5.02 %ID/g	1.38 %ID/g	6.2 %ID/g	26.8 %ID/g	–
CC(=O)N(C)c1c(I)c(C(=O)NCCCCCCC(=O)O)c(I)c(N(C)C(C)=O)c1I [Example F7-DP-MDTA]	2.44 %ID/g	0.57 %ID/g	0.05 %ID/g	9.5 %ID/g	8.33 %ID/g	0.16 %ID/g	17.1 %ID/g	9.81 %ID/g	0.77 %ID/g	4.92 %ID/g	14.5 %ID/g	22.2 %ID/g	–
CC(=O)N(C)c1c(I)c(C(=O)NCC(=O)O)c(I)c(N(C)C(C)=O)c1I [Example F2-DP-MDTA, 4-[[[3,5-Bis(acetylmethylamino)-2,4,6-triiodophenyl]carbonyl]amino]-acetic acid]	4.57 %ID/g	0.81 %ID/g	0.03 %ID/g	17.1 %ID/g	5.69 %ID/g	0.16 %ID/g	12.8 %ID/g	10.6 %ID/g	1.03 %ID/g	1.28 %ID/g	8.81 %ID/g	16.5 %ID/g	–
CC(=O)N(C)c1c(I)c(C(=O)O)c(I)c(N(C)C(C)=O)c1I [MDTA, 3,5-Bis-(Acetylmethylamino)-2,4,6-triiodobenzoic acid]	4.56 %ID/g	–	–	–	21.5 %ID/g	–	15.8 %ID/g	15.4 %ID/g	–	1.5 %ID/g	4.55 %ID/g	13.3 %ID/g	Biodistribution, Blood 5' (blood, 5', 5 min): 1.21 % ID/g-tissue; Biodistribution, Blood 60' (blood, 60'): 0.00 % ID/g-tissue; Biodistribution, Kidney 1' (kidney, 1', 1 min): 37.57 % ID/g-tissue; Biodistribution, Kidney 60' (kidney, 60', 60 min): 0.18 % ID/g-tissue; Biodistribution, Liver 60' (liver, 60', 60 min): 0.85 % ID/g-tissue
CC(=O)N(C)c1c(I)c(C(=O)Nc2ccc(CCCCCCCCCCCCCCCCCCC(=O)O)cc2)c(I)c(N(C)C(C)=O)c1I [Example F19-P-MDTA]	36.7 %ID/g	13.2 %ID/g	0.68 %ID/g	5.56 %ID/g	5.45 %ID/g	2.67 %ID/g	17.2 %ID/g	24.7 %ID/g	10.4 %ID/g	1.05 %ID/g	2.4 %ID/g	14.4 %ID/g	–
